Data taken from patent US9365604B2, “Oligomer-nucleoside phosphate conjugates” (NEKTAR THERAPEUTICS, priority 2007, dated 2016).
Like-named read-outs stand apart in the source and are kept apart here. Each block holds one compound with its values, some of them ahead of it.

Key:
[1] = tested on: Caco-2 cells
Description: (§6) Bi-Directional Permeability of PEG-Floxuridine Conjugates in Caco-2 and MDCK Cells

[2] = Bi-directional permeability in Caco-2 cells; details: human
Description: as §6

[3] = tested on: MDCK cells
Description: as §6

[4] = Bi-directional permeability in MDCK cells; details: dog
Description: as §6

[5] = in vitro; details: dog, MDCK
Description: as §6

[6] = in vitro; details: human, Caco-2
Description: as §6

[7] = tested on: Caco-2 cells; assay: Bi-directional permeability in Caco-2 cells
Description: as §6

[8] = tested on: HCT15; assay: Sulforhodamine B (SRB) growth inhibition assay; format: cell-based, Human; details: SRB assay, cells exposed for 24 h, read-out: GI50 values (μM) HCT15
Description: (§1) In Vitro Screening of PEG-Gemcitabine Monophosphate in Selected Human Cancer Cell Lines
(§2) The aim was to determine the GI50 values for PEG-floxuridine conjugates against a panel of cell lines, and based on previous data from Xenograft studies. […] The test articles were solubilized in dimethylsulfoxide and were tested at four different molar (M) concentrations; 10^−4, 10^−5, 10^−6, M. GI50 (the concentration needed to reduce the growth of treated cells to half that of untreated control cells) was calculated for each condition ([(Ti−Tz)/(C-Tz)]×100=50, where Ti, Tz, and C refer to absorbance values obtained from each tested concentration, time zero, and control treatment, respectively).
as §2, with “The objective” for “The aim”, “the IC50” for “the GI50”, “for PEG-gemcitabine” for “for PEG-floxuridine”, “in dimethyl sulfoxide” for “in dimethylsulfoxide”, “10^−6, 10^−7” for “10^−6,”, “condition ([(Ti−Tz)/(C−Tz)]×100=50,” for “condition ([(Ti−Tz)/(C-Tz)]×100=50,”

[9] = tested on: MCF7; assay: Sulforhodamine B (SRB) growth inhibition assay; format: cell-based, Human; details: for GI50: SRB assay
Description: as §1, §2
as §2, with “The objective” for “The aim”, “the IC50” for “the GI50”, “for PEG-gemcitabine” for “for PEG-floxuridine”, “in dimethyl sulfoxide” for “in dimethylsulfoxide”, “10^−6, 10^−7” for “10^−6,”, “condition ([(Ti−Tz)/(C−Tz)]×100=50,” for “condition ([(Ti−Tz)/(C-Tz)]×100=50,”

[10] = tested on: HT29; assay: Sulforhodamine B (SRB) growth inhibition assay; format: cell-based, Human
Description: as §1, §2
as §2, with “The objective” for “The aim”, “the IC50” for “the GI50”, “for PEG-gemcitabine” for “for PEG-floxuridine”, “in dimethyl sulfoxide” for “in dimethylsulfoxide”, “10^−6, 10^−7” for “10^−6,”, “condition ([(Ti−Tz)/(C−Tz)]×100=50,” for “condition ([(Ti−Tz)/(C-Tz)]×100=50,”

[11] = tested on: Hop62; assay: Sulforhodamine B (SRB) growth inhibition assay; format: cell-based, Human
Description: as §1, §2
as §2, with “The objective” for “The aim”, “the IC50” for “the GI50”, “for PEG-gemcitabine” for “for PEG-floxuridine”, “in dimethyl sulfoxide” for “in dimethylsulfoxide”, “10^−6, 10^−7” for “10^−6,”, “condition ([(Ti−Tz)/(C−Tz)]×100=50,” for “condition ([(Ti−Tz)/(C-Tz)]×100=50,”

[12] = tested on: COLO205; assay: Sulforhodamine B (SRB) growth inhibition assay; format: cell-based, Human; details: COLO205; SRB assay, cells exposed for 24 h; read-out: GI50 values (μM) COLO205
Description: as §1, §2
as §2, with “The objective” for “The aim”, “the IC50” for “the GI50”, “for PEG-gemcitabine” for “for PEG-floxuridine”, “in dimethyl sulfoxide” for “in dimethylsulfoxide”, “10^−6, 10^−7” for “10^−6,”, “condition ([(Ti−Tz)/(C−Tz)]×100=50,” for “condition ([(Ti−Tz)/(C-Tz)]×100=50,”

[13] = tested on: A2780; assay: Sulforhodamine B (SRB) growth inhibition assay; format: cell-based, Human
Description: as §1, §2
as §2, with “The objective” for “The aim”, “the IC50” for “the GI50”, “for PEG-gemcitabine” for “for PEG-floxuridine”, “in dimethyl sulfoxide” for “in dimethylsulfoxide”, “10^−6, 10^−7” for “10^−6,”, “condition ([(Ti−Tz)/(C−Tz)]×100=50,” for “condition ([(Ti−Tz)/(C-Tz)]×100=50,”

[14] = tested on: HCT-116; assay: In vitro cytotoxicity assay (CellTiter-Glo); format: cell-based
Description: (§3) The objective of these studies were to determine the IC50 values for PEG-floxuridine conjugates against floxuridine-resistant cell lines based on data from previous Xenograft studies. The cells were exposed for 72 h, and cell viability assessed by using the CellTiter-Glo assay.
(§4) The objective of these studies was to determine the IC50 values for PEG-gemcitabine conjugates against gemcitabine-resistant cell lines based on data from previous Xenograft studies. The cells were exposed for 72 h, and cell viability assessed by using the CellTiter-Glo assay.

[15] = tested on: MIA PaCa-2; assay: In vitro cytotoxicity assay (CellTiter-Glo); format: cell-based
Description: as §3, §4

[16] = tested on: HT-29; assay: In vitro cytotoxicity assay (CellTiter-Glo); format: cell-based
Description: as §3, §4

[17] = tested on: MDCK cells; assay: Bi-directional permeability in MDCK cells
Description: as §6

[18] = tested on: DU145; assay: Sulforhodamine B (SRB) growth inhibition assay; format: cell-based, Human
Description: as §2
as §2, with “The objective” for “The aim”, “the IC50” for “the GI50”, “for PEG-gemcitabine” for “for PEG-floxuridine”, “in dimethyl sulfoxide” for “in dimethylsulfoxide”, “10^−6, 10^−7” for “10^−6,”, “condition ([(Ti−Tz)/(C−Tz)]×100=50,” for “condition ([(Ti−Tz)/(C-Tz)]×100=50,”

[19] = tested on: NCI/ADR-RES; assay: Sulforhodamine B (SRB) growth inhibition assay; format: cell-based, Human; details: cells exposed for 24 h, read-out: GI50 values (μM) NCI/ADR-RES
Description: as §1
(§5) The aim was to determine the GI50 values for PEG-floxuridine conjugates against a panel of cell lines, and based on previous data from Xenograft studies. The cells were exposed for 24 h, and cell viability assessed by using the Sulphorhodamine (SRB) assay. The test articles were solubilized in dimethylsulfoxide and were tested at four different molar (M) concentrations; 10^−4, 10^−5, 10^−6, M. GI50 (the concentration needed to reduce the growth of treated cells to half that of untreated control cells) was calculated for each condition ([(Ti−Tz)/(C-Tz)]×100=50, where Ti, Tz, and C refer to absorbance values obtained from each tested concentration, time zero, and control treatment, respectively).
as §5, with “The objective” for “The aim”, “the IC50” for “the GI50”, “for PEG-gemcitabine” for “for PEG-floxuridine”, “in dimethyl sulfoxide” for “in dimethylsulfoxide”, “10^−6, 10^−7” for “10^−6,”, “condition ([(Ti−Tz)/(C−Tz)]×100=50,” for “condition ([(Ti−Tz)/(C-Tz)]×100=50,”

[20] = tested on: CAKI-1; assay: In vitro cytotoxicity assay (CellTiter-Glo); format: cell-based
[21] = GI50 of conjugate vs floxuridine

Absorption potential [1]: High
Significant efflux [1]: Yes
permeability across Caco-2 monolayers (in words) [1]: high permeability
Papp B-A/Papp A-B ([1]; human): 3.9
recovery ([2]; Caco-2, percent recovery A -> B): 110%
recovery ([2]; Caco-2, percent recovery B -> A): 99%
Significant efflux [3]: No
permeability through MDCK monolayers (in words) [3]: relatively poor permeability
Papp B-A/Papp A-B ([3]; dog): 0.9
recovery ([4]; percent recovery A -> B): 104%
recovery ([4]; percent recovery B -> A): 99%
Papp A→B [5]: 0.16 ×10⁻⁶ cm/s
Papp B→A [5]: 0.14 ×10⁻⁶ cm/s
efflux ratio [5]: 0.9
Papp A→B [6]: 2.22 ×10⁻⁶ cm/s
Papp B→A [6]: 8.71 ×10⁻⁶ cm/s
efflux ratio [6]: 3.9
SMILES: CCCCCOC(=O)Nc1nc(=O)n([C@@H]2O[C@H](C)[C@@H](O)[C@H]2O)cc1F [Capecitabine]

SMILES: COCCOCCOCCOCCOCCOCCOCCOP(=O)(O)OC[C@H]1O[C@@H](n2cc(F)c(=O)[nH]c2=O)C[C@@H]1O [Floxuridine Mono (mPEG7), 5′-floxuridine methoxy hepta(ethylene glycol) phosphate]
Papp A -> B [7]: 0.14 10^−6 cm/s
Papp B -> A [7]: 0.06 10^−6 cm/s
Papp B-A/Papp A-B [7]: 0.4
Significant efflux [7]: No
percent recovery A -> B [7]: 79%
percent recovery B -> A [7]: 89%
GI50 [8]: ~32 µM
ratio vs flox (GI50) MCF7 [9, 21]: 0.9
GI50 ([9]; 48 h drug exposure, read-out: GI50 in MCF7): 2.2 µM
GI50 ([9]; cells exposed for 24 h, read-out: GI50 values (μM) MCF7): 0.13 µM
ratio vs flox (GI50) HT29 [10, 21]: 4
GI50 ([10]; SRB assay, cells exposed for 24 h, read-out: GI50 values (μM) HT29): > 100 µM
ratio vs flox (GI50) Hop62 [11, 21]: 417
GI50 ([11]; SRB assay, cells exposed for 24 h, read-out: GI50 values (μM) Hop62): > 100 µM
GI50 [12]: 1.9 µM
ratio vs flox (GI50) A2780 [13, 21]: 35
GI50 ([13]; SRB assay, cells exposed for 24 h, read-out: GI50 values (μM) A2780): 2.3 µM
Ratio vs floxuridine (IC50) HCT-116 [14]: 2
IC50 ([14]; 72 h exposure, CellTiter-Glo): 48 nM
Ratio vs floxuridine (IC50) MIA PaCa-2 [15]: 2
IC50 ([15]; 72 h exposure, CellTiter-Glo): 96 nM
Ratio vs floxuridine (IC50) HT-29 [16]: 1
IC50 ([16]; 72 h exposure, CellTiter-Glo): 76 nM
Papp A -> B [17]: <0.06 10^−6 cm/s
Papp B -> A [17]: <0.08 10^−6 cm/s
Significant efflux [17]: No
percent recovery A -> B [17]: 100%
percent recovery B -> A [17]: 90%
ratio vs flox (GI50) DU145 [18, 21]: 0.005
GI50 ([18]; SRB assay, cells exposed for 24 h, read-out: GI50 values (μM) DU145): 0.13 µM
GI50 [19]: < 0.1 µM
Ratio vs floxuridine (IC50) CAKI-1 [20]: 1
IC50 ([20]; 72 h exposure, CellTiter-Glo): 157 nM
